As usually defined, the melting point is the temperature, or range, at which the solid turns liquid.

Structures can show the parent of a compound that is named as a salt.

`CCC(CC)(NC(=O)c1cnn2c1NC(c1ccccc1)CC2C(F)(F)F)c1ccccc1` (centres unmarked) [Example 396, N-(1-ethyl-1-phenylpropyl)-5-phenyl-7-(trifluoromethyl)-4,5,6,7-tetrahydropyrazolo[1,5-a]pyrimidine-3-carboxamide] came in with a melting point of 165 to 166 °C.
For `CCC(CC)(NC(=O)c1cnn2c1N[C@@H](c1ccccc1)CC2(C)C)c1ccc(C(C)(C)C)cc1` (as salt: HCl) [Example 1052, (5R)-N-(1-(4-tert-butylphenyl)-1-ethylpropyl)-7,7-dimethyl-5-phenyl-4,5,6,7-tetrahydropyrazolo[1,5-a]pyrimidine-3-carboxamide] the value was 139 to 140 °C.
Under `CCC(CC)(NC(=O)c1cnn2c1NC(c1ccccc1)CC2(C)C)c1ccc(COC(C)=O)cc1` (centres unmarked) [Example 737, 4-(1-(((7,7-dimethyl-5-phenyl-4,5,6,7-tetrahydropyrazolo[1,5-a]pyrimidin-3-yl)carbonyl)amino)-1-ethylpropyl)benzyl acetate] stands 185 to 186 °C.
`CCC1(CC)C[C@@H](OC)CN1C(=O)c1cnn2c1N[C@@H](c1ccccc1)CC2(C)C` [Example 1111, (5R)-3-(((4R)-2,2-diethyl-4-methoxy-1-pyrrolidinyl)carbonyl)-7,7-dimethyl-5-phenyl-4,5,6,7-tetrahydropyrazolo[1,5-a]pyrimidine] came in with a melting point of 148 to 150 °C.
For `CCC(CC)(CCC(F)(F)F)NC(=O)c1cnn2c1NC(c1ccccc1)CC2(C)C` (centres unmarked) [Example 698, N-(1,1-diethyl-4,4,4-trifluorobutyl)-7,7-dimethyl-5-phenyl-4,5,6,7-tetrahydropyrazolo[1,5-a]pyrimidine-3-carboxamide], the melting point lay within 84 to 85 °C.
In turn, `CC(C)(NC(=O)c1cnn2c1NC(c1ccccc1)CC2(C)C)c1ccc(C(F)(F)F)cc1` (centres unmarked) [Example 427, 7,7-dimethyl-N-(1-methyl-1-(4-(trifluoromethyl)phenyl)ethyl)-5-phenyl-4,5,6,7-tetrahydropyrazolo[1,5-a]pyrimidine-3-carboxamide] gave a melting point of 182 to 183 °C.
`CCCCC(CCCC)(NC(=O)c1cnn2c1NC(c1ccccc1)CC2(C)C)c1ccc(C(F)(F)F)cc1` (centres unmarked) [Example 411, N-(1-butyl-1-(4-(trifluoromethyl)phenyl)pentyl)-7,7-dimethyl-5-phenyl-4,5,6,7-tetrahydropyrazolo[1,5-a]pyrimidine-3-carboxamide] gave a melting point of 113 to 114 °C.
For `Cc1ccc(-n2cc3c(n2)CCN(C(=O)c2cnn4c2NC(c2ccccc2)CC4C(F)(F)F)C3)cc1` (centres unmarked) [Example 276, 2-(4-methylphenyl)-5-((5-phenyl-7-(trifluoromethyl)-4,5,6,7-tetrahydropyrazolo[1,5-a]pyrimidin-3-yl)carbonyl)-4,5,6,7-tetrahydro-2H-pyrazolo[4,3-c]pyridine] the value was 167 to 168 °C; for `COc1ccccc1C1CC(C(F)(F)F)n2ncc(C(=O)NC34CC5CC(CC(C5)C3)C4)c2N1` (centres unmarked) [Example 279, N-(1-adamantyl)-5-(2-methoxyphenyl)-7-(trifluoromethyl)-4,5,6,7-tetrahydropyrazolo[1,5-a]pyrimidine-3-carboxamide], 238 to 239 °C; for `CCC(CC)(NC(=O)c1c(C)nn2c1N[C@@H](c1ccccc1)CC2(C)C)c1cc(C)n(-c2ccccc2)n1` (as salt: HCl) [Example 1062, (5R)-N-(1-ethyl-1-(5-methyl-1-phenyl-1H-pyrazol-3-yl)propyl)-2,7,7-trimethyl-5-phenyl-4,5,6,7-tetrahydropyrazolo[1,5-a]pyrimidine-3-carboxamide], 194 to 195 °C.
The compound `CCC(CC)(NC(=O)c1cnn2c1NC(c1ccc(F)cc1F)CC2(C)C)c1ccc(C(F)(F)F)cc1` (centres unmarked) [Example 694, 5-(2,4-difluorophenyl)-N-(1-ethyl-1-(4-(trifluoro-methyl)phenyl)propyl)-7,7-dimethyl-4,5,6,7-tetrahydropyrazolo[1,5-a]pyrimidine-3-carboxamide] registered a melting point of 198 to 199 °C.

Values taken from US9447100B2, “Substituted pyrazolo[1,5-A] pyrimidines as calcium receptor modulating agents” (Takeda Pharmaceutical Company Limited, priority 2002, dated 2016).
